In brackets after ≈: the same amount, converted by molar mass.
Experiments:
M. pnumoniae Mac = assay: Anti-mycoplasmal activity (MIC), agar-dilution method; format: cell-based, Mycoplasma pneumoniae; settings: Mycoplasma; agar dilution; M. pnumoniae Mac; read-out: MIC
Protocol: (§1) The minimum growth inhibitory concentrations (MIC; μg/ml) of the test chemicals were measured by the agar-dilution method.
(§2) (1) Preparation of a mycoplasma suspension for inoculation
(§3) A stored frozen suspension of mycoplasma (0.2 to 0.3 ml) was inoculated in 2 to 3 ml of a preculture medium to be described later. It was serially diluted tenfold until the dilution ratio reached 10,000 times. These diluted solutions were cultivated at 37° C. for 2 to 7 days. A culture having the highest dilution ratio was selected from those cultures in which a color change of the media was noted as a result of mycoplasma growth. It was diluted to 100 times with the preculture medium to prepare a mycoplasma suspension for inoculation.
(§4) The following preculture media were used.
For Mycoplasma pneumoniae and Acholeplasma laidlawii, Chanock liquid medium containing 0.5% glucose (pH 7.8) [Library of Bacteriology 2, "Procedures for Isolation and Identification of Human, Animal and Plant Mycoplasmas", edited by Japanese Society for Bacteriology, page 8 (1982), Saikon Publishing Co.] was used.
(§5) (2) Preparation of agar plates containing the test chemicals
(§6) A 1,000 μg/ml aqueous solution of each test chemical was prepared (a difficultly-soluble chemical was dissolved by adding an equimolar amount of sodium hydroxide; the same applies hereinafter). The solution was used as a base solution and its twofold serial dilutions were prepared. The diluted solutions were pipetted on plastic petri dishes each in an amount of 1 ml. The Chanock agar medium (for Mycoplasma hyorhinis, 0.5% mucin was further added) described at page 9 of the above cited "Procedures for Isolation and Identification of Human, Animal and Plant Mycoplasmas" was heated and kept at 55° C. and put in an amount of 9 ml in each of the petri dishes containing the test chemicals and fully mixed with the test chemicals to prepare agar plates containing the test chemicals.
(§7) The mycoplasma suspension for inoculation prepared by the procedure described in section (1) was inoculated in an amount of about 3 microliters on each of the chemical-containing agar plates by means of a Cathra-replicator (3 mm pin). The plates on which Mycoplasma pneumoniae, Mycoplasma arginini, and Acholeplasma laidlawii and Mycoplasma hyorhinis were inoculated were tightly packed in a plastic bag together with the plasic petri dishes including water-immersed absorbent cotton. Mycoplasma pneumoniae was aerobically cultivated at 37° C. under highly humid conditions for 7 days; and Mycoplasma arginini and Acholeplasma laidlawii, for 2 days. The other mycoplasma species were cultivated anaerobically for 2 days by using a GasPak anaerobic system (BBL). After the cultivation, growth of mycoplasma were observed under an OLYMPUS microscope (20-100 X). The lowest concentration of the test chemical at which no growth of mycoplasma was noted is defined as MIC.

M. hyorhinis BST7 = assay: as above; format: cell-based, Mycoplasma hyorhinis; settings: Mesomycoplasma hyorhinis; agar dilution; M. hyorhinis BST7; read-out: MIC
Protocol: as §1, §2, §3, §4
For Mycoplasma hyorhinis, a liquid medium (pH 7.8) for isolation of Mycoplasma hyorhinis [Journal of the Japan Veterinary Medical Association,32, 34-38 (1979)] was used.
as §5, §6, §7

A. laidlawii PG-8 = assay: Anti-mycoplasmal activity (MIC, MMC), liquid dilution method; format: cell-based; settings: Acholeplasma laidlawii, liquid dilution, A. laidlawii PG-8; for MBC: PG8, 120 h, read-out: MMC; for MIC: PG8, read-out: MIC
Protocol: (§8) The minimum growth inhibitory concentration (MIC, μg/ml) and minimum mycoplasmacidal concentration (MMC, μg/ml) of test chemicals were measured by the liquid dilution method. The method of measuring MIC in this example differs from that used in Test Example 1.
(§9) A 1,000 μg/ml aqueous solution of a test chemical was prepared, and diluted to 5 times with a preculture medium. The dilution (200 μg/ml) was serially diluted twofold with the same medium in a 8-well reservoir. Fifty microliters of each diluted solution was distributed in the wells of a microplate. A well to which no test chemical was added was used as a control.
(§10) A mycoplasma suspension for inoculation prepared as in Test Example 1 was pipetted in an amount of 50 microliters to each of the wells. The microplates were sealed by a plate seal, shaken by a micromixer, and cultivated at 37° C. for 5 days. In the control to which no test chemical was added, color change of the medium by the growth of mycoplasma was observed after two days from the start of the cultivation. At this time, 3 microliters of the liquid culture was inoculated in drug-free Chanock agar medium by using a Cathra-replicator. The liquid culture and the agar medium were further cultivated at 37° C. for 3 days (anaerobically in the case of M. orale, and aerobically in the case of A. laidlawii and M. arginini). MIC and MMC were determined from the results of observation on the 5th day. MIC was defined as the lowest concentration of the test chemical at which growth of mycoplasma in the drug-containing liquid medium was not noted, and MMC, as that in the drug-free agar medium.

M. arginini G-230 = assay: as above; format: cell-based, Mycoplasma arginini; settings: Mycoplasmopsis arginini, liquid dilution, M. arginini G-230; for MBC: G230, 120 h, read-out: MMC; for MIC: G230, read-out: MIC
Protocol: as §8, §9, §10

[1] = test system: human melanoma cells [II]; assay: Activity of eliminating spontaneously contaminated mycoplasmas, cell [II]; format: cell-based, mycoplasma species unknown; human cells; further: key: +: mycoplasma positive; -: mycoplasma negative
Protocol: Mycoplasma-contaminated L-929 cells were cultivated as described in the preceding section. A 1,000 μg/ml aqueous solution of a test chemical was prepared, and diluted to predetermined concentrations with Eagle's minimum essential medium. The diluted solutions were added to the culture medium. Two petri dishes were used for each concentration of the test chemical, and two circular cover glasses were put in one of them for examination of mycoplasma. No cover glass was put in the other petri dish, and it was used for subcultivation. Cultivation in the test chemical-containing medium was carried out for 4 days, and thereafter, the cultivation was continued for 3 weeks in a drug-free medium. Medium replacement was effected every 3 to 4 days, and subcultivation was carried out once a week. Examination for mycoplasma contamination was performed on the 4th and 7th days, and thereafter every week. The mycoplasmas were detected by the highly specific DNA-fluorochromic staining method.
The activity of test compound to eliminate mycoplasma contamination was tested as in Test Example 3 on spontaneously contaminated human lung carcinoma cells [I] and human melanoma cells [II].
The period during which the cultivation was continued in the presence of the test chemicals was 7 days, and the mycoplasma species which infected the cells were unknown.

[2] = Cytotoxicity on FL cells (cell proliferation inhibition); format: cell-based, human; settings: human, fl human amnion cells; ratio of FL cell IC50 to MIC for mycoplasmas
Protocol: (§11) Whether test chemicals would inhibit growth of cells was examined.
(§12) A 1,000 μg/ml aqueous solution of each of the test chemicals was serially diluted twofold with Eagle's minimum essential medium.
(§13) FL human-amnion cells (2×10^4 cells) were suspended in 3.6 ml of 10% FBS-MEM medium, put in petri dishes (diameter 60 mm) for tissue culture, and cultivated at 37° C. in 5% CO2 humidified atmosphere for 48 hours. The test chemical solution prepared as above was added in an amount of 0.4 ml to each of the petri dishes in predetermined concentrations, and the cells were cultivated for 3 days. After the cultivation, the medium was removed, and the remainder was washed once with Dulbecco's phosphate buffer (pH 7.4). The cells were peeled off by adding 0.2 ml of a 2.5% trypsin-0.002% EDTA mixed solution (1:9) and properly diluted with 10% FBS-MEM medium. Then, the number of the cells was counted by an Erma hemocytometer.
(§14) The cell proliferation rate was calculated by following formula [formula]

FL human-amnion cells = assay: as above; format: cell-based; settings: for IC50: Homo sapiens, 72 h, FL cells, 3 days, read-out: IC50 (50% cell proliferation inhibitory concentration)
Protocol: as §11, §12, §13, §14

Staphylococcus aureus = assay: Antibacterial activity (MIC); format: cell-based; settings: for MIC: unit inferred

SMILES	MIC (M. pnumoniae Mac)	MIC (M. hyorhinis BST7)	MBC (A. laidlawii PG-8)	MIC (A. laidlawii PG-8)	MBC (M. arginini G-230)	MIC (M. arginini G-230)	mycoplasma elimination ([1]; 0.2 μg/ml, day 0)	mycoplasma elimination ([1]; 0.2 μg/ml, day 7)	mycoplasma elimination ([1]; 0.2 μg/ml, day 14)	mycoplasma elimination ([1]; 0.2 μg/ml, day 21)	mycoplasma elimination ([1]; 0.2 μg/ml, day 28)	selectivity ratio at 72 h [2]	IC50 (FL human-amnion cells)	MIC (Staphylococcus aureus; Staphylococcus aureus)	other results
CC1CN(c2c(F)c(N)c3c(=O)c(C(=O)O)cn(C4CC4)c3c2F)CCN1 (stereo not drawn) [Compound 1]	0.025 µg/mL (≈ 0.0661 µM)	0.2 µg/mL (≈ 0.529 µM)	0.2 µg/mL (≈ 0.529 µM)	0.2 µg/mL (≈ 0.529 µM)	0.1 µg/mL (≈ 0.264 µM)	0.1 µg/mL (≈ 0.264 µM)	+	-	+	+	+	66 to 528	13.2 µg/mL (≈ 34.9 µM)	0.025 µg/mL (≈ 0.0661 µM)	mycoplasma elimination ([1]; 0.39 μg/ml, day 0): +; mycoplasma elimination ([1]; 0.39 μg/ml, day 7): -; mycoplasma elimination ([1]; 0.39 μg/ml, day 14): -; mycoplasma elimination ([1]; 0.39 μg/ml, day 21): -; mycoplasma elimination ([1]; 0.39 μg/ml, day 28): -
CN(C)c1ccc(O)c2c1C[C@H]1C[C@H]3[C@H](N(C)C)C(O)=C(C(N)=O)C(=O)[C@@]3(O)C(O)=C1C2=O [Compound 3, minocycline]	0.78 µg/mL (≈ 1.7 µM)	0.1 µg/mL (≈ 0.219 µM)	> 100 µg/mL	0.2 µg/mL (≈ 0.437 µM)	> 100 µg/mL	0.39 µg/mL (≈ 0.852 µM)									
NCC1CN(c2c(F)c(N)c3c(=O)c(C(=O)O)cn(C4CC4)c3c2F)CCO1 (stereo not drawn) [Compound A, 5-amino-7-(2-aminomethylmorpholino)-1-cyclopropyl-6,8-difluoro-1,4-dihydro-4-oxoquinoline-3-carboxylic acid]	0.0125 µg/mL (≈ 0.0317 µM)	0.05 µg/mL (≈ 0.127 µM)	0.0125 µg/mL (≈ 0.0317 µM)	0.0125 µg/mL (≈ 0.0317 µM)	0.05 µg/mL (≈ 0.127 µM)	0.05 µg/mL (≈ 0.127 µM)	+	-	-	-	-	180 to 1440	18 µg/mL (≈ 45.6 µM)	0.0063 µg/mL (≈ 0.016 µM)	mycoplasma elimination ([1]; 0.1 μg/ml, day 0): +; mycoplasma elimination ([1]; 0.1 μg/ml, day 7): -; mycoplasma elimination ([1]; 0.1 μg/ml, day 14): +; mycoplasma elimination ([1]; 0.1 μg/ml, day 21): +; mycoplasma elimination ([1]; 0.1 μg/ml, day 28): +; safety range (FL human-amnion cells; in words, IC50/MIC): the safety range is broadest in compound A; toxicity on cultivated cells (FL human-amnion cells; in words, summary): little toxicity on cultivated cells; antibacterial activity (Staphylococcus aureus; in words): potent antibacterial activity and is superior to control compounds 1 to 4; antibacterial activity relative to compound 1 (Staphylococcus aureus; in words, Staphylococcus aureus): about four times as potent antibacterial activity as compound 1
